Measurements reported in PubChem BioAssay (NCI).
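Values below derive from 48-hour exposures of cells grown in 96-well plates, with endpoints linearly interpolated between the two concentrations bracketing the appropriate inhibition level. Here, GI50 denotes the concentration required for 50% inhibition of growth. TGI marks complete inhibition of growth.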

Columns and labels:
Experiment in all cases: growth of human tumour cells (NCI), 48 h
[1] = tested on: MOLT-4 leukemia
[2] = tested on: SK-MEL-2 melanoma
[3] = tested on: HOP-92 NSCLC
[4] = tested on: SF-539 CNS
[5] = tested on: SF-268 CNS
[6] = tested on: RXF 393 renal
[7] = tested on: OVCAR-4 ovarian
[8] = tested on: EKVX NSCLC
[9] = tested on: NCI-H23 lung
[10] = tested on: CCRF-CEM leukemia

| Compound | GI50 [1] [µM] | TGI [1] [µM] | GI50 [2] [µM] | TGI [2] [µM] | GI50 [3] [µM] | TGI [3] [µM] | GI50 [4] [µM] | TGI [4] [µM] | GI50 [5] [µM] | TGI [5] [µM] | GI50 [6] [µM] | TGI [6] [µM] | GI50 [7] [µM] | TGI [7] [µM] | GI50 [8] [µM] | TGI [8] [µM] | GI50 [9] [µM] | TGI [9] [µM] | GI50 [10] [µM] | TGI [10] [µM] |
| --- | --- | --- | --- | --- | --- | --- | --- | --- | --- | --- | --- | --- | --- | --- | --- | --- | --- | --- | --- | --- |
| Cc1cc(N2CCN(C)CC2)nc(NC2CCCC(Nc3ccnc4cc(Cl)ccc34)C2)n1 (stereo not given) | 1.77 | 7.59 | 1.99 | 4.38 | 1.67 | 3.49 | 1.68 | 3.31 | 1.97 | 6.35 | 1.42 | 3.17 | 1.9 | 6.24 | 2.81 | 12.5 | 4.19 | 17.7 | 1.78 | 7.34 |
| Nc1cc(C(F)F)c(-c2nc(N3[C@@H]4CC[C@H]3COC4)nc(N3[C@@H]4CC[C@H]3COC4)n2)cn1 | 0.796 | > 100 | 0.388 | 4.96 | 0.0688 | 0.722 | 0.297 | 3.02 | 0.374 | > 100 | 0.18 | 0.816 | 0.191 | 2.03 | 0.277 | 6.61 | 0.652 | > 100 | 0.69 | > 100 |
| O=C1OC(c2ccc([N+](=O)[O-])cc2)=N/C1=C\c1ccc(O)cc1 | – | > 100 | – | > 100 | – | > 100 | – | > 100 | – | > 100 | – | > 100 | – | > 100 | – | > 100 | – | > 100 | – | > 100 |
| CCOC(=O)c1cc(C(=O)c2cc(OC)cc(OC)c2)n2ncccc12 | 2.63 | > 100 | 0.738 | > 100 | 24.9 | > 100 | 1.85 | 40.2 | 26.5 | > 100 | 1.64 | 14.2 | 17 | > 100 | 4.74 | > 100 | 4.9 | > 100 | 2.51 | > 100 |
| C=C(CO)CC(O)c1ccccc1 (stereo not given) | – | > 100 | – | > 100 | – | > 100 | – | > 100 | – | > 100 | – | > 100 | – | > 100 | – | > 100 | – | > 100 | – | > 100 |
| Cc1ccnc2c1NC(=O)c1cccnc1N2C1CC1 | > 100 | > 100 | > 100 | > 100 | > 100 | > 100 | > 100 | > 100 | > 100 | > 100 | > 100 | > 100 | > 100 | > 100 | > 100 | > 100 | > 100 | > 100 | > 100 | > 100 |
